Test results: PMC7321161, “The Intriguing Effects of Substituents in the N-Phenethyl Moiety of Norhydromorphone: A Bifunctional Opioid from a Set of “Tail Wags Dog” Experiments” (Molecules, 2020)
Values joined by “and” are separate entries in the source; they are usually repeats but may differ in a detail not shown here. Equal entries are not always repeated. “Also recorded” adds a separate entry of the source. Where two headings read alike, the source gives them in different places.

Key:
[1] = target: T1, human δ-receptor (OPRMD1) (Homo sapiens, UniProt P41143); experiment: cell-based; format: cell-based
T1 construct: host or cells: HitHunter CHO-K1 cells

[2] = system: Swiss Webster mice; experiment: Respiration rate and arterial oxygen saturation in mice (MouseOx pulse oximeter); conditions: for Effect on oxygen saturation (SpO2) in mice: 6 min to 45 min post-injection, data not shown; for Effect on respiration rate in mice: normal air, s.c., 2i 0.01–0.1 mg/kg, morphine 10 mg/kg, AUC 6–45 min post injection, vs saline
[3] = target: T2, rat DOR (Rattus norvegicus, UniProt P33533); experiment: Stimulation of [35S]GTPγS binding, C6 glioma cell membranes expressing DOR; format: biochemical
T2 construct: expressed in transfected cells; host or cells: C6 rat glioma cells, stably transfected; membranes

[4] = target: T3, μ-opioid receptor (MOR) (Rattus norvegicus, UniProt P33535); experiment: Opioid receptor binding, μ sites ([3H]DAMGO), rat brain homogenate
T3 construct: Frozen whole rat brains excluding cerebellum were thawed on ice; from tissue; host or cells: whole rat brain excluding cerebellum, membrane homogenate

[5] = target: T4, human μ-opioid receptor (OPRM1) (Homo sapiens, UniProt P35372); experiment: cell-based
T4 construct: host or cells: HitHunter CHO-K1 cells

[6] = target: T5, rat MOR (Rattus norvegicus, UniProt P33535); experiment: Stimulation of [35S]GTPγS binding, C6 glioma cell membranes expressing MOR; format: biochemical
T5 construct: expressed in transfected cells; host or cells: C6 rat glioma cells, stably transfected; membranes

[7] = target: T6, κ-opioid receptor (KOR) (Rattus norvegicus, UniProt P34975); experiment: Opioid receptor binding, κ sites ([3H]U69,593), rat brain homogenate; conditions: radioligand displacement at 100 nM
T6 construct: Frozen whole rat brains excluding cerebellum were thawed on ice; from tissue; host or cells: whole rat brain excluding cerebellum, membrane homogenate

[8] = system: squirrel monkeys; experiment: Operant responding (FR10 food reinforcement) in squirrel monkeys; conditions: squirrel monkeys
[9] = as above; conditions: male, monkey, in vivo
[10] = target: T7, human μ-opioid receptor β-arrestin-2 (Homo sapiens, UniProt P35372); experiment: cell-based
T7 construct: enzyme fragment for EFC (β-galactosidase ProLink fragment, by own knowledge of the PathHunter system); host or cells: PathHunter CHO cells

[11] = target: T8, δ-opioid receptor (DOR) (Rattus norvegicus, UniProt P33533); experiment: Opioid receptor binding, δ sites ([3H]DADLE), rat brain homogenate
T8 construct: Frozen whole rat brains excluding cerebellum were thawed on ice; from tissue; host or cells: whole rat brain excluding cerebellum, membrane homogenate

[12] = target: T9, human κ-opioid receptor (OPRK1) (Homo sapiens, UniProt P41145); experiment: cell-based
T9 construct: host or cells: HitHunter CHO-K1 cells

[13] = system: squirrel monkeys; experiment: Warm-water tail-withdrawal latency in squirrel monkeys; format: in vivo, Saimiri sciureus; conditions: for ED50: Saimiri, in Primates; for Antinociceptive effect, tail withdrawal latency at 50, 52 and 55 °C: cumulative doses
[14] = system: squirrel monkeys; experiment: Squirrel monkey ventilation (whole-body plethysmograph, air or 5% CO2); format: in vivo, Saimiri sciureus
Experimental: (§1) Gas (either air or a 5% CO2 in air mixture) was introduced to and extracted from the chamber at a constant flow rate of 5 L/min. Experimental sessions consisted of 4–6 consecutive 30 min cycles, each comprising a 15 min exposure to air followed by a 15 min exposure to 5% CO2. Drug effects were determined using cumulative dosing procedures, and injections were administered following each exposure to 5% CO2. Respiratory rate and tidal volume (mL/breath) were recorded over 1 min periods and were multiplied to provide minute volumes. Data from the last three minutes of each exposure to air or CO2 were averaged and used for analysis of drug effects on ventilation.

[15] = as above; format: in vivo, Saimiri sciureus; conditions: male, monkey, in vivo, other: injection; squirrel monkeys; dose required to decrease minute volume in 5% CO2 to 50% of baseline; read-out: ED50 Respiratory Depression
Experimental: as §1

[16] = dose required to increase tail withdrawal latency to 5 s, read-out: ED50 Antinociception (52 °C)

T1 sequence (P41143 whole entry): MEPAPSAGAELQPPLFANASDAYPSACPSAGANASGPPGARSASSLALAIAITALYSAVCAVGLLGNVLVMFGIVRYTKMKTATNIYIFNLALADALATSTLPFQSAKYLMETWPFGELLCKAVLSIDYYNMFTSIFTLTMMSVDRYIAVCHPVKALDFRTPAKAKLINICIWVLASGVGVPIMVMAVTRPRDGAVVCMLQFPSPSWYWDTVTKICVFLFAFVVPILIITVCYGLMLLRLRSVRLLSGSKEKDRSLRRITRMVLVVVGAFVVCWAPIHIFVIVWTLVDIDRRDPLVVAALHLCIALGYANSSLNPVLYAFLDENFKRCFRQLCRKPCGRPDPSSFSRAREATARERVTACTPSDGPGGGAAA
T9 sequence (P41145 whole entry): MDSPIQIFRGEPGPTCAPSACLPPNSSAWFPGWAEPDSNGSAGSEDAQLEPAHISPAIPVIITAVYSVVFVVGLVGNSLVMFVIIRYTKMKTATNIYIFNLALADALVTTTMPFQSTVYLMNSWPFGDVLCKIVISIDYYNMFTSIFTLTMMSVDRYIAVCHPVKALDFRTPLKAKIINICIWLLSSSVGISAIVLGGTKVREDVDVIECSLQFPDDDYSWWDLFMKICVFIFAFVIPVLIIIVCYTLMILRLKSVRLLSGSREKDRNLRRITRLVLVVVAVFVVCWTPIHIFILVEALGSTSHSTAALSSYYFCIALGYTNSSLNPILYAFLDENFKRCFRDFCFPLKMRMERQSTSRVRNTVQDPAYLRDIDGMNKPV
T5 sequence (P33535 whole entry): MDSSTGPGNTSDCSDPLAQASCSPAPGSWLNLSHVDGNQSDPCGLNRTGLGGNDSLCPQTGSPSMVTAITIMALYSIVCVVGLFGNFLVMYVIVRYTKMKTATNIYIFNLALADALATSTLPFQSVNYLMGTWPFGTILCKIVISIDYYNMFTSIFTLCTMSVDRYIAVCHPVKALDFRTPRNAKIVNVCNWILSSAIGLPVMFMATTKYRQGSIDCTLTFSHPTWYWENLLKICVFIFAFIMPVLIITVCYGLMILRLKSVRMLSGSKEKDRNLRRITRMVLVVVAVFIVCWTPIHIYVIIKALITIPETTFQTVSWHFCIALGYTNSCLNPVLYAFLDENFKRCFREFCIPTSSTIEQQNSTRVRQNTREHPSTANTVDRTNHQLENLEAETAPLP
T7 sequence (P35372 whole entry, the tested form may be a part): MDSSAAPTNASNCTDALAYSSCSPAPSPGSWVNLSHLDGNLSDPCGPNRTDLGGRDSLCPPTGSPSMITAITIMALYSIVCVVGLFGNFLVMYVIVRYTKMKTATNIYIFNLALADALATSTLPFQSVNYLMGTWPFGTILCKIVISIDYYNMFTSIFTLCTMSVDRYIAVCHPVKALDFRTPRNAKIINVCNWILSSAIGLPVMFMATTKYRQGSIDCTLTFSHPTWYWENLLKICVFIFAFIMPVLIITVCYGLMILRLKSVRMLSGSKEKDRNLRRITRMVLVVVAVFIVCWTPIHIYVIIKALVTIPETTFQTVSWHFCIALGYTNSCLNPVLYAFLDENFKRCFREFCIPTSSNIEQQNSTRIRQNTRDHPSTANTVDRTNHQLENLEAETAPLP
T2 sequence (P33533 whole entry): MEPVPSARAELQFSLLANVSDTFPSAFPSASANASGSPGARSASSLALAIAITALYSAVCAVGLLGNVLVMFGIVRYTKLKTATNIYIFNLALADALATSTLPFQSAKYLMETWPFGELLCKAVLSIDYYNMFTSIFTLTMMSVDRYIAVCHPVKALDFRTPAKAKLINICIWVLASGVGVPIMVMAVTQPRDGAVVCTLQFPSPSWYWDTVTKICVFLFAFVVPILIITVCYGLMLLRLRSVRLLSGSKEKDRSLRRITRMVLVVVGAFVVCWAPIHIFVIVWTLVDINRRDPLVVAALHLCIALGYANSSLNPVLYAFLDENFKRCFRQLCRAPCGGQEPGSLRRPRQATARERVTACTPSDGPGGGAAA
T4 sequence (P35372 whole entry): as the sequence (P35372 whole entry, the tested form may be a part) above
T8 sequence (P33533 whole entry): as the sequence (P33533 whole entry) above
T3 sequence (P33535 whole entry): as the sequence (P33535 whole entry) above
T6 sequence (P34975 whole entry): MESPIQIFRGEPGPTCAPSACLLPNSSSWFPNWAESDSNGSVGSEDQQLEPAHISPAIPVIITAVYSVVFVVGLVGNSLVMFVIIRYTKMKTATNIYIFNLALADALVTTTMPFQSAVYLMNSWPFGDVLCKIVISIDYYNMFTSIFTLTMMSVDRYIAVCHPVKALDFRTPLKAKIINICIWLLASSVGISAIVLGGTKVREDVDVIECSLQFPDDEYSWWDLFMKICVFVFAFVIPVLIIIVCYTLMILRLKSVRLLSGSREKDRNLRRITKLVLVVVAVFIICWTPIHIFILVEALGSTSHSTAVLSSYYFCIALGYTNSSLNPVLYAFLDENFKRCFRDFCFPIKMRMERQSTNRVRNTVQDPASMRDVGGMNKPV

Structure (SMILES): O=C1CCC2C3Cc4ccc(O)c5c4[C@@]2(CCN3CCc2ccc(Cl)cc2)[C@H]1O5 (stereo partly drawn) [Compound 2i, (7aR,12bS)-3-(4-Chlorophenethyl)-9-hydroxy-2,3,4,4a,5,6-hexahydro-1H-4,12-methanobenzofuro[3,2-e]-isoquinolin-7(7aH)-one]
- EC50 δ/μ ratio in the cAMP assay [1]: 10
- Emax ([1]; CHO-K1, read-out: DOR cAMP % Efficacy): 84.8%
- EC50 ([1]; DOR cAMP Agonist Potency ± SEM): 0.53 nM
- Effect on oxygen saturation (SpO2) in mice [2]: neither morphine nor 2i had any effect
- Effect on respiration rate in mice [2]: did not depress respiration rate; also recorded: no effect on respiration rate
- DOR activity type in the [35S]GTPγS assay [3]: potent full DOR agonist
- EC50 ([3]; DOR EC50, [35S]GTPγS, C6 cells expressing DOR, mean ± SEM): 2.4 ± 0.7 nM
- DOR % Stimulation, [35S]GTPγS ([3]; compared to standard maximal DPDPE): 83.8 ± 3.7%
- Ki [4]: 1.09 ± 0.06 nM
- EC50 ([5]; MOR cAMP Agonist Potency ± SEM): 0.05 nM
- Emax ([5]; OPRM1, read-out: MOR cAMP % Efficacy): 98.8%
- EC50 [6]: 2 ± 1 nM
- MOR activity type in the [35S]GTPγS assay ([6]; antagonist activity assumed from high MOR affinity and lack of stimulation): potent partial MOR agonist
- MOR % Stimulation, [35S]GTPγS ([6]; compared to standard maximal DAMGO): 39.0 ± 2.1%
- KOR Binding, exploratory binding assay [7]: NT (NT = not tested—inactive (<50% activity at 100 nM concentration in exploratory binding assays (displaced less than half of radioligand))
- Behavioral impairment (decreases in operant performance, reinforcers obtained) [8]: dose-related behavioral impairment
- ED50 [9]: 0.022 mg/kg
- Bias Factor [10]: 0.82
- EC50 [10]: 2.44 nM
- Emax ([10]; read-out: MOR Mediated β-arrestin Recruitment (% Control, Emax DAMGO)): 44.8%
- Ki [11]: 7.89 ± 1.1 nM
- δ/μ ratio in opioid receptor binding studies ([11]; DOR Ki / MOR Ki): about 7
- Emax ([12]; CHO-K1, read-out: KOR cAMP % Efficacy): 76.6%
- EC50 ([12]; KOR cAMP Agonist Potency ± SEM): 55 nM and 55.2 nM
- ED50 [13, 16]: 0.015 mg/kg
- ED50 ([13]; read-out: ED50 Antinociception (50 °C), tail withdrawal, 50 °C water): 0.01 mg/kg
- Antinociceptive effect, tail withdrawal latency at 50, 52 and 55 °C [13]: full effect at moderate (50 °C) and hot (52 °C) but not at very hot (55 °C) water temperatures
- Effect on ventilation (minute volume) during exposure to 5% CO2 mixed in air (hypercapnia) [14]: significantly reduced minute volume in 5% CO2; also recorded: respiration was depressed; also recorded: significantly decreased ventilation
- Effect on respiratory rate or ventilation (minute volume) during exposure to air alone ([14]; 2i 0.003–0.1 mg/kg, morphine 0.03–3.0 mg/kg): did not depress respiration; also recorded: neither 2i (0.003–0.1 mg/kg) nor morphine (0.03–3.0 mg/kg) had effects
- ED50 [15]: 0.057 mg/kg

Structure (SMILES): CN1CC[C@]23c4c5ccc(O)c4O[C@H]2[C@@H](O)C=C[C@H]3[C@H]1C5 [Morphine, reference compound]
- Effect on oxygen saturation (SpO2) in mice [2]: neither morphine nor 2i had any effect
- Effect on respiration rate in mice [2]: significantly reduced respiratory rate
- Effect on respiration rate in mice ([2]; listed as morphine): significantly reduced; also recorded: significantly decreased respiratory rate
- Behavioral impairment (decreases in operant performance, reinforcers obtained) [8]: dose-related behavioral impairment
- ED50 [9]: 1.3 mg/kg
- ED50 [13, 16]: 0.14 mg/kg
- Antinociceptive effect, tail withdrawal latency at 50, 52 and 55 °C [13]: full antinociceptive effects at all three water temperatures
- ED50 [15]: 1.06 mg/kg
